Test results published in paper PMC2743695 (BMC Structural Biology, 2009).

Molecular target: AlrBax (Dal1, alanine racemase from Bacillus anthracis Ames) (Bacillus anthracis, UniProt A0A6L7HC45)
Conditions: covalent (internal aldimine with Lys41); pH 6.5; chloride ion and acetate in active site

Chain of AlrBax (Dal1, alanine racemase from Bacillus anthracis Ames) (A0A6L7HC45 1-389 limits assumed): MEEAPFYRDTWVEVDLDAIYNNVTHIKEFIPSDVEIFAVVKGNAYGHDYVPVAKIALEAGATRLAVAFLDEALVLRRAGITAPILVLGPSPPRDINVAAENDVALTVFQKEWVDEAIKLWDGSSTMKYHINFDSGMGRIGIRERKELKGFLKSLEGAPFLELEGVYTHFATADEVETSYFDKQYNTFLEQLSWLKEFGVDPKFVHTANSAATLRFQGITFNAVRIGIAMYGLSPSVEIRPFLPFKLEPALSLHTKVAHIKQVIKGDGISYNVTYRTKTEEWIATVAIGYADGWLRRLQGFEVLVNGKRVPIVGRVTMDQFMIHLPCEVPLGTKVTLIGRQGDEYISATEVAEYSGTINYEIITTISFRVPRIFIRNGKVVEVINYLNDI

Cc1ncc(COP(=O)(O)O)c(C=O)c1O [PLP]
X-ray crystal structure, 1.95 Å: In the AlrBax structure, Lys41 is seen covalently linked to the PLP cofactor
